Where two headings read alike, the source gives them in different places.

The target of assay [1] is T1, human cloned dopamine D4.2 receptors expressed in CHO-cells (Homo sapiens, UniProt P21917, DEL265-296).
T1 construct: expressed in transfected cells; host or cells: CHO cells
T1 sequence (P21917 with tags, fused parts or gaps DEL265-296): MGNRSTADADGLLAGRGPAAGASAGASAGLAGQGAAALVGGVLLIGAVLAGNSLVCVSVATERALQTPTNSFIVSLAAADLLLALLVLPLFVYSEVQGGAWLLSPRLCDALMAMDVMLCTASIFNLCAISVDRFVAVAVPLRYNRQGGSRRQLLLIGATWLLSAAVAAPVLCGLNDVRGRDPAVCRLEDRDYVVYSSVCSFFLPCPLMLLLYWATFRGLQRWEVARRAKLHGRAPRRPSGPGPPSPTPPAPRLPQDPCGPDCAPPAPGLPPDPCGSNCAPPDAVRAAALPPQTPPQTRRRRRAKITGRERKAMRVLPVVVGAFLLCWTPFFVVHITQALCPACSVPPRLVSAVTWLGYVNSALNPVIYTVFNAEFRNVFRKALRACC
Kind of assay: Inhibition of binding of [3H]YM-09151-2 to D4.2 receptors. Here is the method:
Inhibition of Binding of [^3H]YM-09151-2 to D4.2 Receptors
By this method, the inhibition by drugs of the binding of [^3H]YM-09151-2 (0.06 nM) to membranes of human cloned dopamine D4.2 receptors expressed in CHO-cells is determined in vitro. The method is modified from NEN Life Science Products, Inc., technical data certificate PC2533-10/96.

In another assay the target is T2, dopamine D2 receptor (Rattus norvegicus, UniProt P61169).
T2 construct: from tissue
Kind of assay: Inhibition of the binding of [3H]Spiperone to D2 receptors. Here is the method: Inhibition of the Binding of [^3H]Spiperone to D2 Receptors
The compounds were tested with respect to affinity for the dopamine D2 receptor by determining their ability to inhibit the binding of [^3H]Spiperone to D2 receptors by the method of Hyttel et al. J. Neurochem. 1985, 44, 1615.

Another assay concerns the target T3, D4 receptor (Homo sapiens, UniProt P21917).
T3 sequence (P21917 1-419): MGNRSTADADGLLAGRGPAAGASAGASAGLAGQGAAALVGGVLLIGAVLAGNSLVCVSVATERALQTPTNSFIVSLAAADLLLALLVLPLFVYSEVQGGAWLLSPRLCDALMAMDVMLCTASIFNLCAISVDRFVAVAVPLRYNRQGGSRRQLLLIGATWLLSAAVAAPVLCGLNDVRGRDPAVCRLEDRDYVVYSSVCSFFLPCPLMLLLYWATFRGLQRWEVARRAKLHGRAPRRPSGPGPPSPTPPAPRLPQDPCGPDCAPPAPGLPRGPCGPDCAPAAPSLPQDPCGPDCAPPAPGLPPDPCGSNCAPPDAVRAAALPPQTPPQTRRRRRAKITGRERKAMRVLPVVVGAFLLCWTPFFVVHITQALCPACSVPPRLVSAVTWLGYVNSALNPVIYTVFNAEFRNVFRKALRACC
The settings on record: various in vitro efficacy assays, literature; cited from earlier work.

[2] abbreviates: inhibition of [3H]Spiperone binding, read-out: D2-Receptor IC50.

T2 sequence (P61169 whole entry): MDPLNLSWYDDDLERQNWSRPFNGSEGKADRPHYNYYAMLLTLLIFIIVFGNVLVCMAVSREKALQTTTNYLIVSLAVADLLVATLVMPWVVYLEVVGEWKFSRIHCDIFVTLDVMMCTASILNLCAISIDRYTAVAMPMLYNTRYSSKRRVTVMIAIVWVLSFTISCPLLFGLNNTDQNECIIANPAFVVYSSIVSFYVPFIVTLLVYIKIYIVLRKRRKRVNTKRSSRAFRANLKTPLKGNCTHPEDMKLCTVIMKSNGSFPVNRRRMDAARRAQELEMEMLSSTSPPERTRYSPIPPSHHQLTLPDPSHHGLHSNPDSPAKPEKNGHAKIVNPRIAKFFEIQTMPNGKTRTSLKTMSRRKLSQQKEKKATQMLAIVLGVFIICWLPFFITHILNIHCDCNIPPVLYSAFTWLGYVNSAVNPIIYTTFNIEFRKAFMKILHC

With `Clc1ccc(N2CCN(Cc3ccc4[nH]ccc4c3)CC2)cc1` [Compound 1a, 5-[[4-(4-chlorophenyl)piperazin-1-yl]methyl]-1H-indole], the IC50 (commonly the midpoint of a concentration-inhibition curve) is 7.5 nM in assay [1] and 1700 nM at dopamine D2 receptor. Take `c1cc2cc(CN3CCN(c4ccc5[nH]ccc5c4)CC3)ccc2[nH]1` [Compound 1b, 5-[[4-(5-indolyl)piperazin-1-yl]methyl]-1H-indole]: the IC50 in assay [1] is less than 50 nM; at dopamine D2 receptor (setting [2]), 1000 nM. In assay [1] (printed as '<50/89', meaning of the second figure not explained), the D4-receptor, second figure after the slash in the IC50 cell was determined as 89 nM. For `COc1ccc(N2CCN(Cc3ccc4[nH]ccc4c3)CC2)cc1` [Compound 1c, 5-[[4-(4-methoxyphenyl)piperazin-1-yl]methyl]-1H-indole], the IC50 was 25 nM in assay [1] and more than 10000 nM at dopamine D2 receptor. As to `c1ccc(N2CCN(Cc3ccc4[nH]ccc4c3)CC2)cc1` [Compound 1d, 5-[[4-phenylpiperazin-1-yl]methyl]-1H-indole], the IC50 came out at 31 nM in assay [1] and 940 nM on dopamine D2 receptor (setting [2]). Take `Clc1ccc(C2=CCN(Cc3ccc4[nH]ccc4c3)CC2)cc1` [Compound 1e, 5-[4-(4-Chlorophenyl)-3,6-dihydro-2H-pyridin-1-ylmethyl]-1H-indole]: the IC50 worked out at 1.4 nM in assay [1] and 190 nM at dopamine D2 receptor (setting [2]). Turning to `Clc1ccc(N2CCN(Cc3ccc4cc[nH]c4c3)CC2)cc1` [Compound 1f, 6-[[4-(4-chlorophenyl)piperazin-1-yl]methyl]-1H-indole], at dopamine D2 receptor, the IC50 is more than 10000 nM. In the case of `COc1ccc(N2CCN(Cc3ccc4cc[nH]c4c3)CC2)cc1` [Compound 1g, 6-[[4-(4-methoxyphenyl)piperazin-1-yl]methyl]-1H-indole], the IC50 in assay [1] was 9.1 nM; at dopamine D2 receptor, more than 10000 nM. `CC(C)Oc1cccnc1N(C)C1CCN(Cc2ccccc2)CC1` [Compound U-101958]: the “Functional activity at the D4 receptor (in words)” value at D4 receptor is recorded as “partial D4 receptor agonists”.

The values above are taken from patent US7105543B2, “4-, 5-, 6- and 7-indole derivatives useful for the treatment of CNS disorders” (H. Lundbeck A/S, priority 2000, dated 2006).
